The conditions of data set [1]: higher dosages for a long period, clinical; cited from earlier work.
The next data set concerns stress-induced ulcer. The data set is described as follows: mice experiments on stress-induced ulcer (restraint plus water immersion). In kind it is in vivo, male ddY mice. The settings on record: for inhibitory effect on stress-induced ulcer (in words): 200 mg/kg. The protocol:
(a) Mice Experiments on stress-induced ulcer Experimental procedures:
Male ddY mice weighing about 20 g were made to fast for 18 hours. Water was given freely. Compounds to be tested were suspended in Tween 80 to prepare an aqueous suspension and administered orally. Immediately thereafter, the mice were subjected to restraint plus water immersion stress (25° C.) for 6 hours. Thereafter, the stomach was excised and fixed by formalin. The degree of ulcer was shown as a total of the length. The control group was given only the solvent.

For data set [2], the target named is T1, Δ^4 -5α-reductase for aldosterone in rat liver (Rattus norvegicus, UniProt P24008).
T1 construct: The pellet was appropriately diluted with a solution of 0.25 M sucrose-1 mM EDTA to use as a 5α-reductase solution; from tissue; host or cells: rat liver, 105,000 g pellet
T1 sequence (P24008 1-259): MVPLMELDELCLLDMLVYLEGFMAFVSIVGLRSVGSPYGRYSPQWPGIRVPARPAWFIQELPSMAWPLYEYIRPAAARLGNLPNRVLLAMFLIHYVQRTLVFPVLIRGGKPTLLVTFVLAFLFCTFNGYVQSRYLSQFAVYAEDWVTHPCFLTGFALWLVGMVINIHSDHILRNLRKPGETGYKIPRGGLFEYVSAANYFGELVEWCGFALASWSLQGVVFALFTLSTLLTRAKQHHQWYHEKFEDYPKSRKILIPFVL
Briefly: inhibitory action on Δ^4-5α-reductase for aldosterone. The format is biochemical. The following applies: for inhibition at 0.173 µM: pH 7.2, read-out: 5α-reductase (inhibition %). The protocol: (§1) In vitro experimental results regarding effects of glycyrrhetinic acid (II) and its modified compounds (III), (IV), and (I) on Δ^4 -5α and 5β-reductase for aldosterone in rat liver will be shown below.
(§2) Assay for activity of Δ^4 -5α and 5β-reductase
(§3) (1) Preparation of enzyme solutions
(§4) Rat livers were perfused with saline and excised to prepare a 25% or 50% homogenate with a solution of 0.25 M sucrose and 1 mM EDTA. The homogenate was spun at 10,000 g for 20 minutes to separate supernatant, which was centrifuged again at 105,000 g to obtain Δ^4 -5β-reductase as the supernatant. The pellet was appropriately diluted with a solution of 0.25 M sucrose-1 mM EDTA to use as a 5α-reductase solution.
(§5) (2) Conditions for incubation and assay
(§6) 1 Aldosterone . . . 0.173 μM/0.05 ml ethanol solution
(§7) 2 Glycyrrhetinic acid or its modified compounds . . . 0.173 μM/0.05 ml ethanol solution Control . . . 0.05 ml ethanol solution
(§8) 5α-reductase solution 0.1 ml
(§9) 5β-reductase solution 0.1 ml or 0.2 ml
(§10) 5 Phosphate buffer (0.1 M, pH 7.2) 1 ml
(§11) The components 1 , 2 , 3 , 4 , 5 , and 6 mentioned above were mixed to bring the total volume up to 2.5 ml. The mixture was incubated at 37° C. for 20 minutes. Before the incubation, however, 1 ml aliquot was removed from 2.5 ml of the mixture mentioned above and extracted with 5 ml of methylene dichloride. After the incubation, the remaining 1.5 ml was extracted with 5 ml of methylene dichloride. The optical density of the two methylene dichloride solutions prepared before and after the incubation was measured by a spectrophotometer (Hitachi) at 240 mμ. Inhibition % of Δ^4 -5α and 5β-reductase activity was calculated from the difference in the optical density.

The test system of data set [3] is writhing induced by acetic acid. Briefly: effect on writhing induced by acetic acid (analgesic action). In kind it is in vivo, male ddY mice. The settings on record: for number of writhing: 200 mg/kg p.o., counted for 10 minutes, control 24.9 ± 1.6, ** p < 0.01. The protocol: (b) Effect on writhing induced by acetic acid (analgesic action)
The present compound olean-12-ene-3β, 30-diol (I) was administered orally to male ddY mice weighing 25-27 g. After 30 minutes, saline containing 0.7% acetic acid was administered intraperitoneally. The number of writhings of the mice was counted for 10 minutes from, 10 min. of the administration. Aspirin was used as the reference.

The subject of data set [4] is aspirin-induced ulcer. The data set is described as follows: rat experiment on aspirin-induced ulcer, pylorus ligated (experiment a). In kind it is in vivo, male Wister rats. The following applies: rat, in vivo. The procedure: (b) Rat experiment on aspirin-induced ulcer
(a) Experimental procedures:
Male Wister rats weighing about 220 g were made to fast for 24 hours. Water was given freely. The rats were laparotomized under anesthesia with ether. The stomach was drawn out and ligated at the pylorus. Immediately thereafter, 1% CMC suspension of aspirin was administered orally in a dose of 100 mg/kg/5 ml. Aqueous suspensions of compounds to be tested were prepared in the same manner as in the experiment (a) and administered intraduodenally at the same time. The wound was closed and the rats were set free. After 7 hours, the stomach was excised and ulcer was measured in the same manner as in the experiment (a).

The subject of data set [5] is PCA reaction (type I allergy). The data set is described as follows: PCA test (type I allergy). In kind it is in vivo, male Wister rats. The settings on record: serum 1/64, 200 mg/kg intraperitoneally; control 16.4 ± 2.8. The protocol: (a) PCA--Test (type I allergy)
Male Wister rats weighing […] were shaved at the abdomen. After 24 hours, 0.05 ml of serum diluted with saline (Blood samples were diluted to 1/32 and 1/64; The blood samples were collected from rats 3 weeks after administration of pertussis vaccine and egg albumin.) was injected intradermally at the abdomen. After 48 hours, compounds to be tested were administered intraperitoneally. Two hours thereafter, 0.5 ml./100 g of a solution of antigen and pigment (a solution of 0.4% egg albumin and 0.5% Pontamine sky blue) was administered. After 45 minutes, the rats were decapitated and bled, and the diameter of the pigment-leaking site under the skin was measured to obtain the area.

Data set [6] deals with ulcers induced by acetic acid. Briefly: experiments with rats on ulcers induced by acetic acid (chronic gastric ulcers). The format is in vivo. The following applies: for ulcer value (major axis × minor axis): p.o., 14 days. Set-up: ulcer value (major axis × minor axis): unit not given here. The protocol: (c) Experiments with rats on ulcers induced by acetic acid
Chronic gastric ulcers were induced by penetrating 100% acetic acid serosally into gastric wall for 60 sec. using a small cup (6 mm in diameter, 5 mm in height).
From the next day, compounds to be tested were administered orally twice a day (morning and evening) for 14 days. Autopsies were carried out 15 days after the administrations.

In data set [7] the target is T2, Δ^4 -5β-reductase for aldosterone in rat liver (Rattus norvegicus, UniProt P31210).
T2 construct: centrifuged again at 105,000 g to obtain Δ^4 -5β-reductase as the supernatant; from tissue; host or cells: rat liver, 105,000 g supernatant (cytosol)
T2 sequence (P31210 1-326): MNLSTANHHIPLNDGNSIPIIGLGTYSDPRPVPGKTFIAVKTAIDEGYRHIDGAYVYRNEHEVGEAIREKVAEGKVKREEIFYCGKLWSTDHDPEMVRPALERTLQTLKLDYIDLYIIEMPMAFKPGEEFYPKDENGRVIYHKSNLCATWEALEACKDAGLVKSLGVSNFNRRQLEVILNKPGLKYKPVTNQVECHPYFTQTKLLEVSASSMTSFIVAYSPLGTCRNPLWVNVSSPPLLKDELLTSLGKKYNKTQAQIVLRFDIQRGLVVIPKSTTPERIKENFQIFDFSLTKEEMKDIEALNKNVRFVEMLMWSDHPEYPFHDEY
The data set is described as follows: inhibitory action on Δ^4-5β-reductase for aldosterone. The format is biochemical. The procedure:
as §1, §2, §3, §4, §5, §6, §7, §8, §9, §10, §11

The subject of data set [8] is aspirin-induced ulcer. The data set is described as follows: rat experiment on aspirin-induced ulcer, oral (experiment b). In kind it is in vivo, male Wister rats. The following applies: 200 mg/kg p.o., after 5 hours; control 0. The protocol: (b) Experimental procedures:
Male Wister rats weighing 120-140 g were made to fast for 24 hours, and compounds to be tested were administered orally. After 5 hours, the rats were killed by a blow. The stomach was excised and observed for the presence of ulcer.
The size of ulcer was measured by ulcer index (ulcer length×width mm^2).

The subject of data set [9] is rat paw edema induced with carrageenin. Briefly: test on rat paw edema induced with carrageenin (antiinflammatory). In kind it is in vivo, male Wister rats. The settings on record: 200 mg/kg p.o., after three hours. The procedure: (a) Test on rat paw induced with carrageenin
To the plantar side of the hind paw of male Wister rats was administered subcutaneously 0.05 ml/rat of 10% saline solution of carrageenin. Edema after three hours was measured by the volume method and the rate of inhibition was assayed. Compounds were administered orally 30 minutes before administration of carrageenin. [formula]

Setting [10] is: summary in words, liver reductase.

Structures are written as SMILES.

With `CC1(C)[C@@H](O[C@H]2O[C@H](C(=O)O)[C@@H](O)[C@H](O)[C@H]2O[C@@H]2O[C@H](C(=O)O)[C@@H](O)[C@H](O)[C@H]2O)CC[C@]2(C)[C@H]3C(=O)C=C4[C@@H]5C[C@@](C)(C(=O)O)CC[C@]5(C)CC[C@@]4(C)[C@]3(C)CC[C@@H]12` [Glycyrrhizin], in data set [1], the “side effect (in words)” value was “pseudoaldosteronism such as hypertension, hypopotassemia, and edema”.
As to `CC1(C)[C@@H](O)CC[C@]2(C)[C@H]3CC=C4[C@@H]5C[C@@](C)(C(=O)O)CC[C@]5(C)CC[C@@]4(C)[C@]3(C)CC[C@@H]12` [III, olean-12-ene-3β-ol-30-oic acid], the “inhibitory effect on stress-induced ulcer (in words)” value with stress-induced ulcer is “showed the effect”. Besides, the ulcer index with stress-induced ulcer (200 mg/kg p.o., 5th experiment, control 4.13 ± 0.53) amounted to 3.38 ± 0.79. The inhibition at 0.173 µM in [2] was -0.5 ± 6.6%.
`CC1(C)[C@@H](O)CC[C@]2(C)[C@H]3C(=O)C=C4[C@@H]5C[C@@](C)(C(=O)O)CC[C@]5(C)CC[C@@]4(C)[C@]3(C)CC[C@@H]12` [II, olean-12-ene-11-oxo-3β-ol-30-oic acid, reference compound]: in [3], the number of writhing stood at 15.2 ± 3.6. Besides, the “effect on writhing (in words)” value in data set [3] (increasing doses) is “significantly decrease the number of writhing”. Also, the “inhibitory effect on aspirin-induced ulcer, experiment (a) (in words)” value with aspirin-induced ulcer [4] is recorded as “scarcely showed the effect”. Also, the area in [5] amounted to 7.7 ± 6.5 mm^2. The “inhibitory effect on stress-induced ulcer (in words)” value in the data set on stress-induced ulcer was “showed the inhibitory effect”. Further, the “ulcer value (major axis × minor axis)” value in data set [6] (Experiment 1, 200 mg/kg (half dose twice/day), control 12.0 ± 2.3) is recorded as 10.4 ± 2.7; in [6] (Experiment 1, 400 mg/kg (half dose twice/day), control 12.0 ± 2.3) it was 8.6 ± 2.2; in data set [6] (Experiment 2, 200 mg/kg (half dose twice/day), control 8.9 ± 1.7) it was 11.5 ± 2.2; in data set [6] (Experiment 2, 400 mg/kg (half dose twice/day), control 8.9 ± 1.7), 5.8 ± 1.0; in [6] (Total, 200 mg/kg (half dose twice/day), control 10.4 ± 1.4) it was 10.9 ± 1.7; in data set [6] (Total, 400 mg/kg (half dose twice/day), control 10.4 ± 1.4, * p < 0.05) it was 7.1 ± 1.2. The “inhibitory effect on acetic acid ulcer (in words)” value in data set [6] (dose of 400 mg) is “clearly showed inhibitory effects”. Besides, the inhibition at 0.173 µM (stock) in [7] (equimolar to aldosterone (0.173 μM), 37° C., 20 minutes, pH 7.2) came to 87.7 ± 2.2%. Besides, the “effect upon Δ^4 -5α-5β-reductase (in words), 5β” value in [7] (setting [10]) was “strongly inhibited the activity of the reductase”. For the same compound, the “effect upon Δ^4 -5α-5β-reductase (in words), 5α” value in data set [2] (setting [10]) is “strongly inhibited the activity of the reductase”.
Take `CC1(C)[C@@H](O)CC[C@]2(C)[C@H]3C(=O)C=C4[C@@H]5C[C@@](C)(CO)CC[C@]5(C)CC[C@@]4(C)[C@]3(C)CC[C@@H]12` [IV, olean12-ene-11-oxo-3β, 30diol]: the inhibition at 0.173 µM in data set [2] is 26.5 ± 5.6%.
In data set [3], `CC(=O)Oc1ccccc1C(=O)O` [aspirin, reference compound] had a number of writhing of 0. The “ulcer index (ulcer length×width)” value in the data set with aspirin-induced ulcer [8] is 7.11 ± 1.1 mm^2. In [9] (control 71 ± 6), this compound yielded an edema % of 17 ± 3%. For the same compound, the inhibition at 200 mg/kg in [9] (Rattus norvegicus, po, 3 h, edema) was found to be 76.1%.
